{"source": "patent US20260224594A1", "about": "“COMPOSITION FOR TREATING CANCER CACHEXIA, COMPRISING DIFLUNISAL OR A PHARMACEUTICALLY ACCEPTABLE SALT THEREOF” (ANIMUSCURE INC., priority 2023, published 2026)", "key": {"[1]": {"system": "C2C12 myoblast cells", "assay": "Cytotoxicity of diflunisal, MTT assay", "assay_type": "cell-based, mouse", "conditions": "approximately 10,000 nM, 18 hours, vs control", "procedure": "C2C12 is a myoblast cell line obtained from the C3H mouse strain, and is widely used to study muscle cell differentiation. The cells were cultured in a cell culture medium (growth medium (GM)), and muscle cell differentiation was induced in a differentiation medium (DM). DMEM containing 15% fetal bovine serum (FBS) was used as the cell culture medium, and DMEM containing 2% horse serum was used as the differentiation medium.\nThe cytotoxicity of diflunisal (CAS No. 22494-42-4, W06) was evaluated using an MTT assay. C2C12 myoblast cells were treated with diflunisal at concentrations of 0, 1, 10, 100, 1,000, and 10,000 nM for 18 hours, and cell viability was then confirmed using the MTT assay. Myoblast cells (1.0×10^4 cells/96 well) were allowed to react with 5 mg/mL MTT for 4 hours in a cell culture medium, and the eluted reaction product was then measured for absorbance at 570 nm."}, "[2]": {"system": "C2C12 cell lines", "assay": "Muscle cell differentiation, MHC immunofluorescence staining and myotube diameter", "assay_type": "cell-based, mouse", "conditions": "10, 100, 1,000, 10,000 nM, day 3 of differentiation induction", "procedure": "(§1) C2C12 is a myoblast cell line obtained from the C3H mouse strain, and is widely used to study muscle cell differentiation. The cells were cultured in a cell culture medium (growth medium (GM)), and muscle cell differentiation was induced in a differentiation medium (DM). DMEM containing 15% fetal bovine serum (FBS) was used as the cell culture medium, and DMEM containing 2% horse serum was used as the differentiation medium. To induce muscle cell differentiation, cells were seeded in a cell culture medium and cultured. When the density of cells reached approximately 80% to 90%, the medium was replaced with a differentiation medium, and differentiation was induced for approximately 2 to 3 days. To analyze the effect of diflunisal on the differentiation of muscle stem cells, MHC immunofluorescence staining was performed (FIG. 2). […] On day 3 of differentiation induction, immunofluorescence staining was performed using an MHC antibody to compare and analyze the degree of myotube formation."}, "[3]": {"system": "C2C12 cell lines", "assay": "Immunoblotting of differentiation markers MHC and myogenin", "assay_type": "cell-based, mouse", "conditions": "positive control ursolic acid (UA)", "procedure": "as §1, with “formation. […] In addition, the expression levels of differentiation markers were confirmed through immunoblotting.” for “formation.”"}, "[4]": {"system": "C2C12 myoblast cells", "assay": "Myoblast proliferation, BrdU staining", "assay_type": "cell-based, mouse", "conditions": "1 μM, approximately 20 hours", "procedure": "To analyze the effect of diflunisal on the proliferation of myoblast cells, a BrdU staining experiment was performed. C2C12 myoblast cells were treated with DMSO as a control or diflunisal (1 μM) for approximately 20 hours, and then allowed to react with BrdU for 15 minutes. Thereafter, immunofluorescence staining was performed using an antibody against BrdU (FIG. 5A). As a result, it was confirmed that the proliferation of myoblast cells increased in the group treated with diflunisal."}, "[5]": {"system": "Pax7", "assay": "Pax7 mRNA expression (qRT-PCR)", "assay_type": "cell-based, mouse", "conditions": "C2C12 cells treated with diflunisal", "source_text": "FIGS. 5A-5B and 6 show the results of confirming the stem cell differentiation-promoting effect through administration of diflunisal. […] In addition, it was confirmed whether the expression level of Pax7, which is a muscle proliferation marker, increased due to diflunisal treatment."}, "[6]": {"system": "C57BL/6 male mice with CTX-induced muscle damage", "assay": "Stem cell proliferation in cardiotoxin (CTX) muscle damage animal model, BrdU staining of TA muscle", "assay_type": "in vivo, mouse", "conditions": "oral 0.02 mg/kg for 2 weeks, CTX injection, then 0.02 mg/kg for 3 days", "procedure": "C57BL/6 male mice were orally administered diflunisal at a dose of 0.02 mg/kg for 2 weeks, and then on the second week, 10 μM cardiotoxin (CTX) was directly injected into the muscle at 2 μL per g of body weight to induce muscle damage. Thereafter, diflunisal was administered at a dose of 0.02 mg/kg for 3 days. Then, immunofluorescence staining was performed on the TA muscle tissue of the mice using a BrdU antibody. […] Also, a quantitative comparison confirmed that the proportion of BrdU-positive cells increased by more than 2.5 times compared to the control when the cells were treated with diflunisal (FIG. 8)."}, "[7]": {"system": "C2C12 myoblast cells", "assay": "Dexamethasone (DEX)-induced muscle atrophy in C2C12 myotubes", "assay_type": "cell-based, mouse", "conditions": "100 μM DEX pretreatment 4 hours, diflunisal 1 μM, 24 hours in DM", "procedure": "To determine whether diflunisal could recover or protect muscles from dexamethasone (DEX)-induced muscle atrophy, this experiment was performed using C2C12 myoblast cells. C2C12 myoblast cells were differentiated in a differentiation medium (DM) for 2 days, pretreated with 100 μM DEX for 4 hours, and then treated with diflunisal (1 μM) together with DMSO as a vehicle. Then, the C2C12 myoblast cells were further cultured in DM for 24 hours. Immunofluorescence staining was performed on dexamethasone-treated C2C12 myotube cells using an MHC antibody to compare and analyze the degree of myotube formation. […] Also, when the expression level of atrogin-1, which is a muscle atrophy marker, was confirmed through immunoblotting, it was confirmed that its expression increased when dexamethasone was administered."}, "[8]": {"system": "muscle cells (myotubes) in cancer cell culture medium (CM)", "assay": "Cachexia induced by cancer cell culture medium (CM) in muscle cells", "assay_type": "cell-based", "conditions": "10, 100, 1,000 nM", "procedure": "To confirm the amelioration effect of diflunisal on cancer cachexia, cancer cachexia was induced in muscle cells using a cancer cell culture medium (CM) (FIG. 11, top). […] Also, the diameter of the myotubes was measured to confirm the improvement."}, "[9]": {"system": "C57BL/6 mice injected with Lewis lung carcinoma", "assay": "Cancer cachexia animal model (Lewis lung carcinoma injected mice)", "assay_type": "in vivo, mouse", "procedure": "Lewis lung carcinoma (LCC, 5×10^6 cells/mice) was injected into C57BL/6 mice to induce lung cancer. Two weeks after injection, diflunisal was orally administered daily for 21 days at a dose of 0.02 or 0.2 mpk (FIG. 13). Thereafter, the changes in body weight, tumor weight, and tumor-free body weight for each mouse were measured. […] To compare the motor ability in the cancer cachexia-induced mouse model, a grip strength test was conducted for each experimental group. […]"}, "[10]": {"conditions": "cancer cachexia-induced mice, diflunisal administered"}}}
{"smiles": "O=C(O)c1cc(-c2ccc(F)cc2F)ccc1O", "note": "[diflunisal]", "values": [{"measurement": "cell viability (MTT assay)", "setting": "[1]", "value": "almost similar to that of the control"}, {"measurement": "diameter of myotubes", "setting": "[2]", "value": "increased in a concentration-dependent manner"}, {"measurement": "muscle cell differentiation (myotube formation, MHC immunofluorescence)", "setting": "[2]; vs DMSO control", "value": "promoted in a concentration-dependent manner"}, {"measurement": "expression of differentiation marker MHC (immunoblotting)", "setting": "[3]", "value": "induced an increase in the expression"}, {"measurement": "expression of differentiation marker myogenin (immunoblotting)", "setting": "[3]", "value": "induced an increase in the expression"}, {"measurement": "proliferation of myoblast cells (BrdU immunofluorescence staining)", "setting": "[4]; vs DMSO", "value": "increased"}, {"measurement": "proportion of BrdU-positive cells", "setting": "[4]; vs DMSO control", "value": "significantly increased compared to the control"}, {"measurement": "relative expression level of Pax7 mRNA", "setting": "[5]", "value": "increased"}, {"measurement": "increase of proportion of BrdU-positive cells compared to the control", "setting": "[6]; TA muscle", "value": "more than 2.5 times"}, {"measurement": "proliferation of myoblast cells in TA muscle (BrdU staining)", "setting": "[6]", "value": "increased"}, {"measurement": "MHC expression (immunofluorescence) after dexamethasone-induced atrophy", "setting": "[7]", "value": "restored"}, {"measurement": "MuRF1 expression (qRT-PCR)", "setting": "[7]", "value": "significantly reduced"}, {"measurement": "expression level of atrogin-1 (muscle atrophy marker, immunoblotting)", "setting": "[7]", "value": "decreased again"}, {"measurement": "diameter of myotubes in CM-induced cancer cachexia model", "setting": "[8]", "value": "increased in a concentration-dependent manner"}, {"measurement": "tumor-free body weight", "setting": "[9]; 0.02 mpk oral daily for 21 days, vs cancer-induced group", "value": "significantly increased compared to the cancer-induced group"}, {"measurement": "grip strength (motor ability)", "setting": "[9]; 0.02 or 0.2 mpk oral daily for 21 days, vs cancer-induced group", "value": "increased in a concentration-dependent manner"}, {"measurement": "muscle mass loss of hindlimb muscles (TA, EDL, SOL, GA)", "setting": "[9]; [10]", "value": "significantly improved"}, {"measurement": "reduction in fat and organ weights (white fat, visceral fat, liver, heart, spleen)", "setting": "[9]; [10]", "value": "improved"}, {"measurement": "relative mRNA expression level of MuRF-1", "setting": "[9]; [10]", "value": "decreased again"}, {"measurement": "relative mRNA expression level of atrogin-1", "setting": "[9]; [10]", "value": "decreased again"}, {"measurement": "change (decrease) in tumor-free body weight", "setting": "[9]; oral daily for 21 days, 0.02 or 0.2 mpk", "value": "improved"}, {"measurement": "overall body weight", "setting": "[9]; oral daily for 21 days, 0.02 or 0.2 mpk, all experimental groups", "value": "no significant change"}]}
